The results in this text go back to patent US9365528B2 (Southern Research Institute, priority 2011, dated 2016).

Data set [1] has as its system Fetal human colonocytes (FHC). Briefly: Cell growth inhibition, cell viability assay (Cell Titer Glo), 72 h. The class given is cell-based. The following applies: Table 3, normal colonocytes, 72 hours of treatment. The procedure: (§1) The potency to inhibit tumor cell growth was determined by calculating IC50 values using a standard cell viability assay (Cell Titer Glo, Promega Corp,) following 72 hours of treatment. The human colon tumor cell lines, HT-29, SW480, HCT116, and Colo 741 were derived from colon adenocarcinomas, while LT97 is derived from an adenoma. Fetal human colonocytes (FHC) are representative of normal colonocytes. The lack of effect inhibiting cyclooxygenases 1 and 2 (COX-1 and -2) is also shown.
Background: Cellular ATP, detected with luciferase, serves as a proxy for viable cell number.

Another data set relates to LT97. Briefly: Tumor cell growth inhibition, cell viability assay (Cell Titer Glo), 72 h. It counts as cell-based. The following applies: Homo sapiens; Table 3; adenoma; 72 hours of treatment. The procedure:
as §1

Another data set deals with HT29. The description is as above. The class given is cell-based. The following applies: Homo sapiens, HT-29. The procedure:
as §1

The next data set has as its system Colo741. Described as above. It counts as cell-based. The following applies: Homo sapiens, COLO-741; Table 3; colon adenocarcinoma; 72 hours of treatment. The procedure: as §1
For another data set, the system named is SW480. The data set is described as above. It counts as cell-based. The following applies: Homo sapiens. The procedure: as §1
In the next data set the test system is HCT116. Described as above. The class given is cell-based. The following applies: Homo sapiens, HCT-116. The procedure: as §1
The test system of another data set is PC3. The data set can be described thus: Tumor cell growth inhibitory activity. It counts as cell-based. The settings on record: Homo sapiens, PC-3.
In the next data set the test system is MDA-MB-231. The data set can be described thus: Tumor cell growth inhibition, cell viability assay (Cell Titer Glo), 72 h. The following applies: Homo sapiens.
The next data set deals with T1, COX-2 (Homo sapiens, UniProt P35354).
T1 sequence (P35354 18-604): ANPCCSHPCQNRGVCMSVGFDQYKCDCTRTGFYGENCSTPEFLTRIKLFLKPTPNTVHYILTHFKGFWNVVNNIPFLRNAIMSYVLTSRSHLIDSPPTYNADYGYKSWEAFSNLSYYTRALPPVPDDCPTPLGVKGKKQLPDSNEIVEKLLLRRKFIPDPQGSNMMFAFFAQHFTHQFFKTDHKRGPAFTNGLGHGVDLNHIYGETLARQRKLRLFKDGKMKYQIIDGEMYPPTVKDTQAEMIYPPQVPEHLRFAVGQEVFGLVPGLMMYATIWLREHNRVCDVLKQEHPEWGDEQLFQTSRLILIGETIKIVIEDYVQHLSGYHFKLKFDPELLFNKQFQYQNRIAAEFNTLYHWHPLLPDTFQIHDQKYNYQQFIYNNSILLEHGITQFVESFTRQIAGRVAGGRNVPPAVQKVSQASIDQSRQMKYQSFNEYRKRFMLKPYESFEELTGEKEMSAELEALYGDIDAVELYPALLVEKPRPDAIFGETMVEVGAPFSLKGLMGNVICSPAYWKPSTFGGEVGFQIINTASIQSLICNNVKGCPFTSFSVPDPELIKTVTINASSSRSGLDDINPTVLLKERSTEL
Briefly: COX inhibition, colorimetric assay with recombinant COX enzymes.

For the next data set, the target named is COX-1 (Homo sapiens, UniProt P23219). The data set is described as above.
Chain of COX-1 (P23219 24-599): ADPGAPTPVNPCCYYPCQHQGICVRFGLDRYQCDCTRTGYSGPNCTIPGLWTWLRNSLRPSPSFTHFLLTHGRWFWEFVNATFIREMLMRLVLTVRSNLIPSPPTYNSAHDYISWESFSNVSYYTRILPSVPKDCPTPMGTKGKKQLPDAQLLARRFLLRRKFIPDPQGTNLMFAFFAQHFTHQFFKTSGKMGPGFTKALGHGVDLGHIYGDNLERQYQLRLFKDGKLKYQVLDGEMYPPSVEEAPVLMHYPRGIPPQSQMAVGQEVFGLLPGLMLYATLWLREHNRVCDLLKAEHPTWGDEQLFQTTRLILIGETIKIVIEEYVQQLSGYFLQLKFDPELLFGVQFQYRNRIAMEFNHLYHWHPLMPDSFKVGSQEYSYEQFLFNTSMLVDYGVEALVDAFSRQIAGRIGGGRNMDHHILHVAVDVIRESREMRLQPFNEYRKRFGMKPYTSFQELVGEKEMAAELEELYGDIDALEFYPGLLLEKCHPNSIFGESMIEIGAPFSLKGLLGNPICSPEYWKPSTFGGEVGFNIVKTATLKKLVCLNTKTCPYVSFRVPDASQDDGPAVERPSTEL
For the next data set, the system named is SKBR3. Briefly: Breast tumor cell growth inhibitory activity. The class given is cell-based. The following applies: Homo sapiens, SK-BR-3; Table 1, breast.
The next data set deals with MCF-7. The data set can be described thus: Breast tumor cell growth inhibitory activity. The class given is cell-based. The settings on record: Homo sapiens, MCF7; Table 1, breast.
[2] abbreviates: Table 3, colon adenocarcinoma, 72 hours of treatment, read-out: HT29 (IC50).
Where [3] appears, read: Table 3, colon adenocarcinoma, 72 hours of treatment, read-out: SW480 (IC50).
Where [4] appears, read: Table 3, colon adenocarcinoma, 72 hours of treatment, read-out: HCT116 (IC50).
Where [5] appears, read: Table 1, compounds 10-13, read-out: Tumor cell growth inhibitory activity (IC50, μM) PC3.
[6] abbreviates: scheme table, read-out: IC50 (μM) PC3.
Where [7] appears, read: MDA-MB-231, read-out: IC50 (μM) MDA-MB-231.
Setting [8] is: MDA-MB-231, read-out: Tumor cell growth inhibitory activity (IC50, μM) MDA-MB-231 (breast).
[9] abbreviates: Table 1, compounds 10-13, read-out: Tumor cell growth inhibitory activity (IC50, μM) HT29.
The mark [10] stands for this setting: scheme table, read-out: IC50 (μM) HT29.
The mark [11] stands for this setting: MDA-MB-231, read-out: Breast tumor cell growth inhibitory activity (IC50, μM) MDA-MB-231.
The mark [12] stands for this setting: Table 1, colon, read-out: Colon tumor cell growth inhibitory activity (IC50, μM) HT29.
[13] abbreviates: Table 1, colon, read-out: Colon tumor cell growth inhibitory activity (IC50, μM) SW480.
The mark [14] stands for this setting: Table 1, colon, read-out: Colon tumor cell growth inhibitory activity (IC50, μM) HCT116.

Read-outs that look alike come from different tables or passages of the source. Where only a bound is given, the exact number is not on record here.

Experimental for COX-1: (§2) The enzyme activity was measured using a colorimetric assay using recombinant COX enzymes. […] The growth inhibitory activity was determined following 72 hours of treatment using a standard cell viability assay (Cell Titer Glo, Promega Corp).
Experimental for COX-2: as §2
Experimental for MDA-MB-231: as §2

In the case of `CSc1ccc(/C=C2/C(C)=C(CC(=O)O)c3cc(F)ccc32)cc1` [Sulindac sulfide, reference compound], the IC50 (in general, the concentration that gives 50% inhibition) is > 200 µM in data set [1]; 37.8 µM with LT97; 73.6 µM with HT29 (setting [2]); 150 µM in the data set with Colo741; 85.2 µM in the data set on SW480 (setting [3]); 73.3 µM in the data set on HCT116 (setting [4]).

With `COc1cc(/C=C2/C(C)=C(CN)c3cc(F)ccc32)cc(OC)c1OC` [Compound 11, (Z)-(5-Fluoro-2-methyl-1-(3,4,5-trimethoxybenzylidene)-1H-inden-3-yl)methanamine], the IC50 in the data set with PC3 (setting [5]) was found to be 29.7 µM; in the data set on PC3 (setting [6]), 29.7 µM; with MDA-MB-231 (setting [7]), 15.3 µM; in the data set with MDA-MB-231 (setting [8]), 15.3 µM; in the data set with HT29 (setting [9]), 14.6 µM; in the data set on HT29 (setting [10]), 14.6 µM.

As to `CC1=C(CCNCc2ccco2)c2cc(F)ccc2/C1=C\c1ccc([S+](C)[O-])cc1` (centres unmarked) [Compound 7], the figures for the IC50 with MDA-MB-231 (setting [11]) and in the data set on HT29 (setting [12]) were 3.7 µM and 2.3 µM, respectively.

Turning to `CC1=C(CCNCc2ccccc2)c2cc(F)ccc2/C1=C\c1ccc(S(C)(=O)=O)cc1` [Compound 9], the IC50 in data set [1] is 11.2 µM; at COX-2 it was > 100 µM; on COX-1, > 100 µM; in the data set with LT97, 8.85 µM; with HT29 (setting [12]), 1.8 µM; in the data set with HT29 (setting [2]), 2.02 µM. For the same molecule, the half-inhibitory concentration (IC50) in the data set on Colo741 worked out at 5.87 µM; in the data set on SW480 (setting [3]), 5.36 µM; in the data set with HCT116 (setting [4]) it was 6.44 µM.

For `CSc1ccc(/C=C2/C(C)=C(CCN)c3cc(F)ccc32)cc1` [Compound 4], the IC50 in the data set on SKBR3 stood at 3.9 µM; in the data set with MDA-MB-231 (setting [11]) it was 5.5 µM; in the data set with HT29 (setting [12]), 4.1 µM; in the data set with SW480 (setting [13]) it was 4.1 µM; with HCT116 (setting [14]), 4.9 µM; in the data set on MCF-7, 5.9 µM.

Take `CSc1ccc(/C=C2/C(C)=C(CCNCc3ccccc3)c3cc(F)ccc32)cc1` [Compound 1]: the IC50 in [1] is 7.83 µM; on COX-2, > 200 µM; at COX-1 it was > 200 µM; with SKBR3 it was 3.4 µM; in the data set with MDA-MB-231 (setting [11]) it was 5.8 µM; in the data set with LT97 it was 6.82 µM. Besides, the concentration for half-maximal inhibition (IC50) with HT29 (setting [12]) came to 2.7 µM; in the data set on HT29 (setting [2]), 2.67 µM; in the data set on Colo741, 8.85 µM; with SW480 (setting [13]), 3.3 µM; with SW480 (setting [3]), 3.28 µM; with HCT116 (setting [14]), 4.9 µM. Also, the IC50 in the data set with HCT116 (setting [4]) was 4.93 µM; in the data set on MCF-7, 6.8 µM.

`COc1cc(/C=C2/C(C)=C(CN(Cc3ccncc3)Cc3ccncc3)c3cc(F)ccc32)cc(OC)c1OC` [Compound 13, (Z)-1-(5-Fluoro-2-methyl-1-(3,4,5-trimethoxybenzylidene)-1H-inden-3-yl)-N,N-bis(pyridin-4-ylmethyl)methanamine]: the melting point – broadly, the temperature, or range, at which the solid turns liquid – amounted to 66.4 °C. Also, the IC50 with PC3 (setting [5]) was determined as 9.09 µM. The 50% inhibitory concentration (IC50) with PC3 (setting [6]) turned out to be 9.09 µM. Further, the IC50 in the data set with MDA-MB-231 (setting [7]) is 8.21 µM. Besides, the IC50 with MDA-MB-231 (setting [8]) was found to be 8.21 µM. In the data set on HT29 (setting [9]), the IC50 amounted to 9.83 µM. The IC50 in the data set on HT29 (setting [10]) amounted to 9.83 µM.

For the molecule `CSc1ccc(/C=C2/C(C)=C(CN)c3cc(F)ccc32)cc1` [Compound 10, (Z)-(5-Fluoro-2-methyl-1-(4-(methylthio)benzylidene)-1H-inden-3-yl)methanamine], the IC50 with PC3 (setting [5]) is 33.6 µM; in the data set with PC3 (setting [6]), 33.6 µM; in the data set on MDA-MB-231 (setting [7]), 19.3 µM; in the data set with MDA-MB-231 (setting [8]), 19.3 µM; in the data set on HT29 (setting [9]) it was 16 µM; in the data set on HT29 (setting [10]), 16 µM.

In the case of `CSc1ccc(/C=C2/C(C)=C(CN(Cc3ccncc3)Cc3ccncc3)c3cc(F)ccc32)cc1` [Compound 12, (Z)-1-(5-Fluoro-2-methyl-1-(4-(methylthio)benzylidene)-1H-inden-3-yl)-N,N-bis(pyridin-4-ylmethyl)methanamine], the IC50 with PC3 (setting [5]) amounted to 12.7 µM; with PC3 (setting [6]) it was 12.7 µM; in the data set on MDA-MB-231 (setting [7]), 9.5 µM; in the data set on MDA-MB-231 (setting [8]) it was 9.5 µM; with HT29 (setting [9]) it was 10.8 µM; in the data set with HT29 (setting [10]) it was 10.8 µM.

Regarding `CSc1ccc(/C=C2/C(C)=C(CCNCCN3CCCCC3)c3cc(F)ccc32)cc1` [Compound 3], the 50% inhibitory concentration (IC50) in the data set with SKBR3 is 4.8 µM; in the data set with MDA-MB-231 (setting [11]), 5.3 µM; in the data set with HT29 (setting [12]), 3 µM; with SW480 (setting [13]), 5.4 µM; in the data set on HCT116 (setting [14]) it was 3.8 µM; with MCF-7, 6.4 µM.
